Results as given in ChEMBL document CHEMBL3352058, “Inhibition of microbial β-N-acetylhexosaminidases by 4-deoxy- and galacto-analogues of NAG-thiazoline” (Bioorg Med Chem Lett, 2014).

What was measured:
[1] = Inhibition of Streptomyces plicatus beta-N-acetylhexosaminidase GH20 using p-nitrophenyl 2-acetamido-2-deoxy-beta-D-glucosaminide substrate at pH 7.0 and 25 degC
[2] = Inhibition of Bacteroides thetaiotaomicron beta-N-acetylglucosaminidase GH84 using p-nitrophenyl 2-acetamido-2-deoxy-beta-D-glucosaminide substrate at pH 7.0 and 25 degC
[3] = Inhibition of Talaromyces flavus beta-N-acetylhexosaminidase GH20 using p-nitrophenyl 2-acetamido-2-deoxy-beta-D-glucosaminide substrate at pH 7.0 and 25 degC

Structure (SMILES) | Ki [1] [µM] | Ki [2] [µM] | Ki [3] [µM]
CC1=N[C@@H]2[C@@H](O)[C@H](O)[C@@H](CO)O[C@@H]2S1 | 24 | 0.029 | 42.7
CC1=N[C@H]2[C@H](O[C@H](CO)C[C@@H]2O)S1 | 9900 | 1830 | 1890
CC1=N[C@@H]2[C@@H](O)[C@@H](O)[C@@H](CO)O[C@@H]2S1 | 90.8 |  | 393
